From patent US20210298332A1, “AGENT FOR SUPPRESSING HEAT-RESISTANT ACIDOPHILIC BACTERIA, METHOD FOR PREVENTING CONTAMINATION WITH HEAT-RESISTANT ACIDOPHILIC BACTERIA, AND BEVERAGE” (SUNTORY HOLDINGS LIMITED, priority 2018, published 2021)
≈ marks a conversion by molar mass, not a printed value.

Tested on: Thermo-Acidophilic Bacilli (Alicyclobacillus acidoterrestris ATCC 49025)
Assay: Evaluation of antibacterial action (agar plate dilution MIC)
Type: cell-based
Procedure: Thermo-Acidophilic Bacilli (Alicyclobacillus acidoterrestris ATCC 49025) were pre-incubated as test bacteria (conditions: YSG broth, 50±1° C., two days, aerobic conditions), so that a test bacterial solution was obtained. A 10 mg/mL xanthohumol solution and serial two-fold dilutions thereof were prepared using 99.5% ethanol. Each of the solution and dilutions was added to a medium (YSG agar medium) whose temperature is maintained at 50±1° C. after being sterilized and dissolved at a ratio of 1/99 (volume of xanthohumol solution/volume of medium solution) and mixed sufficiently. The resulting mixtures were each dispensed into a petri dish and solidified, whereby agar plate media were produced. Each of the agar plate media was smeared with the pre-incubated test bacterial solution, followed by incubation at 50±1° C. for five days under aerobic conditions. The lowest concentration where the growth of the bacteria was prevented was taken as the minimum inhibitory concentration (MIC).

Question: For `COc1cc(O)c(CC=C(C)C)c(O)c1C(=O)/C=C/c1ccc(O)cc1` [Xanthohumol], which “growth of Thermo-Acidophilic Bacilli” value is on record?
Answer: inhibit the growth

Question: And the MIC (ATCC49025, 120 h, YSG agar medium, 50±1° C., five days, aerobic conditions)?
Answer: 3.13 µg/mL (≈ 8.83 µM)
